Type in all cases: in vivo
Series [1] concerns cyclooxygenase-2. The experiment in a line: Ex vivo autoradiography (ARG) of rat brain section after PET, compared with cyclooxygenase-2 immunostaining. How it is done: PET was performed using a brain inflammation model rat for the [^11C]ketoprofen methyl ester (8) synthesized in Example 6. In the experiment, a trace amount, 0.5 μg, of lipopolysaccharide (LPS) that is a constituent of a gram-negative bacteria cell wall outer membrane was injected into the left striatum of a rat, thereby inducing brain inflammation (Hunter R L, Dragicevic N, Seifert K, Choi D Y, Liu M, Kim H C, Cass W A, Sullivan P G, Bing G. Inflammation induces mitochondrial dysfunction and dopaminergic neurodegeneration in the nigrostriatal system. J. Neurochem. 2007100:5:1375-86.). The [^11C]ketoprofen methyl ester (8) was administered to a rat after 1 day from injection of LPS through a caudal vein, PET was performed for 45 minutes using a PET apparatus for small animals (manufactured by microPET, SIMENS). The injection solution of the [^11C]ketoprofen methyl ester (radioactivity 72 to 74 MBq) was prepared by diluting with saline to 1.0 CC volume. […] In the experiment, the rat was perfused with saline, and a section prepared with 2 mm thickness, which was obtained from the brain taken out from the rat, was exposed on an imaging plate BAS SR-2040 (manufactured by Fujifilm Corporation) for 1 hour to read using a fluoroimage analyzer (FLA7000). […]

Another series deals with APP-Tg mouse brain. The series is described as follows: PET imaging of Alzheimer disease model animal (APP-Tg mouse vs wild type mouse). From the text: PET images were taken using an Alzheimer disease model mouse for the [^11C]ketoprofen methyl ester (21) synthesized in Example 6. For the Alzheimer disease model mouse, a transgenic mouse (APP-Tg) excessively expressing amyloid precursor protein (APP) in familial Alzheimer disease was purchased from Taconic Farms, Inc. USA to be used. In 24 months old when accumulation of amyloid β protein was confirmed as pathological change of Alzheimer disease, the [^11C]ketoprofen methyl ester (21) was administered through a caudal vein, and PET images were taken for 30 minutes using a PET apparatus for small animals (microPET, manufactured by SIMENS). The injection solution of the [^11C]ketoprofen methyl ester (21) (radioactivity 45 to 60 MBq) was prepared by diluting with saline to 1.0 CC volume. SUV (Standard Uptake Value)=tissue radioactivity in region of interest (MBq/g)÷[administration amount (MBq)/body weight (g)] was used as the index of an accumulation level, to compare with a brain of a wild type mouse that is a normal mouse in terms of an accumulation amount into the APP-Tg mouse brain.

Series [2] has as its system cyclooxygenase-2. The series is described as follows: PET imaging using brain inflammation model rat (LPS injected into left striatum). The protocol:
PET was performed using a brain inflammation model rat for the [^11C]ketoprofen methyl ester (8) synthesized in Example 6. In the experiment, a trace amount, 0.5 μg, of lipopolysaccharide (LPS) that is a constituent of a gram-negative bacteria cell wall outer membrane was injected into the left striatum of a rat, thereby inducing brain inflammation (Hunter R L, Dragicevic N, Seifert K, Choi D Y, Liu M, Kim H C, Cass W A, Sullivan P G, Bing G. Inflammation induces mitochondrial dysfunction and dopaminergic neurodegeneration in the nigrostriatal system. J. Neurochem. 2007100:5:1375-86.). The [^11C]ketoprofen methyl ester (8) was administered to a rat after 1 day from injection of LPS through a caudal vein, PET was performed for 45 minutes using a PET apparatus for small animals (manufactured by microPET, SIMENS). The injection solution of the [^11C]ketoprofen methyl ester (radioactivity 72 to 74 MBq) was prepared by diluting with saline to 1.0 CC volume. In order to further study an effect of inhibiting bonds by a non-RI labeled body, an injection solution added with 10 mg/kg of ketoprofen methyl ester (final concentration of a solvent was 5% DMSO, 5% tween20) was prepared. On completion of PET imaging, a rat brain section was prepared and an Ex vivo autoradiography (ARG) experiment was performed. In the experiment, the rat was perfused with saline, and a section prepared with 2 mm thickness, which was obtained from the brain taken out from the rat, was exposed on an imaging plate BAS SR-2040 (manufactured by Fujifilm Corporation) for 1 hour to read using a fluoroimage analyzer (FLA7000). In order to identify an expression site of cyclooxygenase-2, chemical staining of an immune tissue in a brain section was performed using a specific antibody. That is, 20 μm of a frozen section prepared from the brain section used in the autoradiography mentioned above and pasted on a slide glass was incubated with anti-cyclooxygenase-2 (rabbit IgG, polyclonal antibody, manufactured by Cayman) diluted to PBS-T at a concentration of 200 times as a primary antibody at 4° C. overnight. […]

Consider `COC(=O)C([11CH3])c1cccc(C(=O)c2ccccc2)c1` (stereo not shown) [[^11C]ketoprofen methyl ester (8), [^11C]ketoprofen methyl ester], for which, in the series with cyclooxygenase-2 [1] (2 mm brain section taken on completion of PET imaging, LPS rat), the “accumulation in ex vivo autoradiography (ARG) of rat brain section” value is on record as “accumulated specifically in an inflammation site”. The “accumulated site versus immunostaining of cyclooxygenase-2” value in the series with cyclooxygenase-2 [1] (20 μm frozen section from ARG brain section, anti-cyclooxygenase-2 antibody, DAB method) was “correspond with a positive site of immunostaining of cyclooxygenase-2”. Further, in the series with APP-Tg mouse brain (24 months old APP-Tg mouse, caudal vein, PET images in 25 minutes after 5 minutes from administration), the “accumulation amount (SUV) in brain, APP-Tg versus wild type mouse” value is recorded as “highly accumulated in the APP-Tg mouse brain as compared with the wild type mouse brain”. Besides, the “site of high accumulation versus reported site of amyloid β accumulation” value in the series on APP-Tg mouse brain (APP-Tg mouse brain, compared with literature report (Am J Pathol. 1998)) is recorded as “corresponded with a site that was reported of accumulation of amyloid β”. Moreover, the “accumulation in inflammation region with co-administered non-RI labeled ketoprofen methyl ester (specificity)” value with cyclooxygenase-2 [2] (10 mg/kg of non-RI labeled ketoprofen methyl ester added to injection solution) was “significantly reduced”. The “passage through the blood-brain barrier (PET)” value in the series with cyclooxygenase-2 [2] (rat 1 day after 0.5 μg LPS into left striatum, tracer via caudal vein, PET 45 minutes) is on record as “passed through the blood-brain barrier”. In addition, the “accumulation of radioactivity in brain (addition average of PET images)” value in the series with cyclooxygenase-2 [2] (rat 1 day after LPS into left striatum, tracer via caudal vein, 45 minutes after administration) was “accumulated in an inflammation region around the LPS injected site in the left side of the brain”.

The values are drawn from patent US8778298B2, “Isotope labeled 2-arylpropionic acid compounds and process for production of same, and molecular probe for positron emission tomography and method for imaging of cyclooxygenase and the like using same” (Riken, priority 2009, dated 2014).
